tested on: HT29 cells; assay: HT29 cell necroptosis assay (TNF-α/Smac mimetic/z-VAD induced necrosis, viability); format: cell-based, human; settings: 10 μM test compound pretreated one hour, TNF-α (40 ng/mL), Smacmimetic (100 nM), z-VAD (20 μM) for 48 hours
Experimental: Biological in Vitro HT29 Cell Assay.
The efficacies of RIP1 inhibitors were tested in vitro using human colon cancer TH29 cells in a necroptosis assay. For the assay, Cells were added to 96-well plates and then 10 μM of the test compound was pretreated for one hour. Then the cells were treated with TNF-α (40 ng/mL), Smacmimetic (100 nM) and z-VAD (20 μM) for 48 hours, and the viability was quantified. DMSO pretreatment group was negative control, Nec-1 pretreatment group was positive control.

Structure (SMILES)	HT29 Inhibition (10 μM)
CC(=O)Nc1nc2ccc(-c3cnc(C)c(NC(=O)CN4CCOCC4)c3)cc2s1 [Compound A38]	33%
CC(=O)Nc1nc2ccc(-c3ccnc(NC(=O)OC4CCCCC4)c3)cc2s1 [Compound A75]	6%
CC(=O)Nc1nc2ccc(-c3cnc(C)c(NC(=O)CC4CC4)c3)cc2s1 [Compound A42, N-(5-(2-acetamidobenzo[d]thiazol-6-yl)-2-methylpyridin-3-yl)-2-cyclopropylacetamide]	22%
CC(=O)Nc1nc2ccc(-c3cnc(C)c(NC(=O)CN4CCCC4)c3)cc2s1 [Compound A41]	14%
CNc1nc2ccc(-c3cnc(C)c(NC(=O)OC4CCCCC4)c3)cc2s1 [Compound A103]	20%
CC(=O)Nc1ncc2cc(-c3cnc(C)c(NC(=O)OC4CCCCC4)c3)ccc2n1 [Compound A96]	8%
CCOC(=O)Nc1cc(-c2ccc3nc(NC(C)=O)sc3c2)cnc1C [Compound A52]	10%
NCCCNc1nc2ccc(-c3cnc(Cl)c(NC(=O)c4cccc(F)c4)c3)cc2s1 [Compound A7]	8%
CC(=O)Nc1nc2ccc(-c3cnc(C)c(NC(=O)OC4CCC5(CC4)OCCO5)c3)cc2s1 [Compound A77]	60%
CC(=O)Nc1nc2ccc(-c3cnc(C)c(NC(=O)OCc4ccccc4)c3)cc2s1 [Compound A74]	8%
Cc1ncc(-c2ccc3nc(N(C)C(=O)CCCCCNC(=O)OC(C)(C)C)sc3c2)cc1NC(=O)Cc1ccccc1 [Compound A101]	5%
CC(=O)Nc1nc2ccc(-c3cnc(Cl)c(NC(=O)c4ccccn4)c3)cc2s1 [Compound A2]	8%
O=C(Nc1cc(-c2ccc3ncsc3c2)cnc1Cl)c1cccc(F)c1 [Compound A11]	8%
Cc1ncc(-c2ccc3nc(NS(C)(=O)=O)sc3c2)cc1NC(=O)OC1CCCCC1 [Compound A85]	7%
CC(=O)Nc1ncc2ccc(-c3cnc(C)c(NC(=O)OC4CCCCC4)c3)cc2n1 [Compound A98]	50%
CC(C)(C)OC(=O)NCCCNc1nc2ccc(-c3cnc(Cl)c(NC(=O)c4cccc(F)c4)c3)cc2s1 [Compound A6]	5%
Cc1ncc(-c2ccc3nc(NCC#N)sc3c2)cc1NC(=O)OC1CCCCC1 [Compound A91]	40%

Structure (SMILES)	HT29 Inhibition (10 μM)
CC(=O)Nc1nc2ccc(-c3cnc(C)c(NC(=O)CN4CCC(O)CC4)c3)cc2s1 [Compound A39]	9%
CC(=O)Nc1nc2ccc(-c3cnc(CCCNC(=O)CCCCCNC(=O)CCCC[C@H]4SC[C@H]5NC(=O)N[C@H]54)c(NC(=O)c4cccc(F)c4)c3)cc2s1 [Compound A8]	10%
O=C(Nc1cc(-c2ccc3nncn3c2)cnc1Cl)c1cccc(F)c1 [Compound A10]	1%
Cc1ncc(-c2ccc3nc(NC(=O)CCCCCNC(=O)CCCCCNC(=O)CCCC[C@@H]4SC[C@@H]5NC(=O)N[C@@H]54)sc3c2)cc1NC(=O)Cc1ccccc1 [Compound A32]	21%
CC(=O)Nc1nc2ccc(-c3cc(NC(=O)OC4CCCCC4)ncn3)cc2s1 [Compound A76]	5%
Cc1ncc(-c2ccc3[nH]c(=O)ccc3c2)cc1NC(=O)OC1CCCCC1 [Compound A97]	7%
CC(=O)Nc1nc2ncc(-c3cnc(C)c(NC(=O)OC4CCCCC4)c3)cc2s1 [Compound A63]	9%
O=C(CCCC[C@@H]1SC[C@@H]2NC(=O)N[C@@H]21)NCCCCCC(=O)NCCCNc1nc2ccc(-c3cnc(Cl)c(NC(=O)c4cccc(F)c4)c3)cc2s1 [Compound A9]	8%
CC(=O)Nc1nc2ccc(-c3cccc(NC(=O)Cc4ccccc4Cl)n3)cc2s1 [Compound A35]	1%
CC(=O)Nc1nc2ccc(-c3cnc(C)c(NC(=O)OC4COC4)c3)cc2s1 [Compound A93]	8%
CC(=O)Nc1nc2ccc(-c3cncc(NC(=O)Cc4ccccc4)n3)cc2s1 [Compound A33]	1%
O=C(Cc1ccccc1)Nc1cc(-c2ccc3ncsc3c2)cnc1Cl [Compound A100]	9%
CC(=O)Nc1nc2ccc(-c3cnc(C)c(NC(=O)Oc4ccccc4)c3)cc2s1 [Compound A82]	7%
CC(=O)Nc1nc2ccc(-c3cnc(C)c(NC(=O)O[C@H]4CC[C@H](O)CC4)c3)cc2s1 [Compound A79]	35%
CC(=O)Nc1nc2ccc(-c3cncc(NC(=O)Cc4ccccc4Cl)n3)cc2s1 [Compound A34]	1%
Cc1ncc(-c2ccc3nc(N(C)C(=O)CCCCCNC(=O)CCCCCNC(=O)CCCC[C@@H]4SC[C@@H]5NC(=O)N[C@@H]54)sc3c2)cc1NC(=O)Cc1ccccc1 [Compound A102]	5%
CC(=O)Nc1nc2ccc(-c3cncc(NC(=O)Cc4cccc(F)c4)c3)cc2s1 [Compound A17]	45%

tested on: HT29 cells; assay: as above; format: cell-based, human; settings: Homo sapiens, HT-29, HT29 cells, TNF-α/Smacmimetic/z-VAD induced necrosis; values given in μM

Structure (SMILES)	IC50
CC(=O)Nc1nc2ccc(-c3cnc(C)c(NC(=O)OC4CCCCC4)c3)cn2n1 [Compound A53]	2.19 µM

same assay, conditions: Homo sapiens, HT-29, HT29 cells, TNF-α/Smacmimetic/z-VAD induced necrosis; values in nM

Structure (SMILES)	IC50
CC(=O)Nc1cn2nc(-c3cnc(C)c(NC(=O)OC4CCCCC4)c3)ccc2n1 [Compound A65]	0.167 µM
Cc1ncc(-c2ccc3nc(N)sc3c2)cc1NC(=O)OC1CCCCC1 [Compound A70, Cyclohexyl (5-(2-aminobenzo[d]thiazol-6-yl)-2-methylpyridin-3-yl)carbamate]	0.093 µM
CC(=O)Nc1nc2ccc(-c3cnc(C)c(NC(=O)OC(C)C)c3)cc2s1 [Compound A73]	0.287 µM
Cc1ncc(-c2ccc3nc(NC(=O)C4CC4)sc3c2)cc1NC(=O)OC1CCOCC1 [Compound A71]	0.012 µM
CC(=O)Nc1ccc2cc(-c3cnc(C)c(NC(=O)OC4CCCCC4)c3)ccc2n1 [Compound A99]	0.441 µM
CC(=O)Nc1nc2ccc(-c3cnc(C)c(NC(=O)OC4CCOCC4)c3)cc2s1 [Compound A55]	0.253 µM
CC(=O)Nc1nc2ccc(-c3cnc(C)c(NC(=O)OC4CCCCCC4)c3)cc2s1 [Compound A87]	0.009 µM
CC(=O)Nc1nc2ccc(-c3cnc(C)c(NC(=O)OC4CCC4)c3)cc2s1 [Compound A92]	0.121 µM
CCC(C)OC(=O)Nc1cc(-c2ccc3nc(NC(C)=O)sc3c2)cnc1C (stereo not shown) [Compound A86]	0.087 µM
CC(=O)Nc1nc2ccc(-c3cc(NC(=O)OC4CCCCC4)c(C)cn3)cc2s1 [Compound A51]	0.073 µM
CNC(=O)Nc1nc2ccc(-c3cnc(C)c(NC(=O)OC4CCCCC4)c3)cc2s1 [Compound A94]	0.01 µM
CC(=O)Nc1nc2ccc(-c3cnc(Cl)c(NC(=O)OC4CCCCC4)c3)cc2s1 [Compound A83]	0.045 µM
Cc1ncc(-c2ccc3nc(NC(=O)c4ccccc4)sc3c2)cc1NC(=O)OC1CCCCC1 [Compound A104]	0.06 µM
CC(=O)Nc1nc2ccc(-c3cnc(C)c(NC(=O)NC4CCCCC4)c3)cc2s1 [Compound A49]	0.357 µM
COc1ncc(-c2ccc3nc(NC(C)=O)sc3c2)cc1NC(=O)OC1CCCCC1 [Compound A69]	0.107 µM
CC(=O)Nc1nc2ccc(-c3cnc(C)c(NC(=O)OC4CCC(F)(F)CC4)c3)cc2s1 [Compound A59]	0.689 µM
CC(=O)Nc1nc2ccc(-c3cnc(C#N)c(NC(=O)OC4CCCCC4)c3)cc2s1 [Compound A72]	0.534 µM

Source: patent US10815226B2, “Heteroaryl compounds as inhibitors of necrosis, composition and application thereof” (ACCRO BIOSCIENCE INC., priority 2016, dated 2020)
